# Data taken from ChEMBL document CHEMBL4177690, “(E)-3-(3,4,5-Trimethoxyphenyl)-1-(pyridin-4-yl)prop-2-en-1-one, a heterocyclic chalcone is a potent and selective CYP1A1 inhibitor and cancer chemopreventive agent” (Bioorg Med Chem Lett, 2017).
# Molecular target: T1, Cytochrome P450 1B1 (Homo sapiens, UniProt Q16678)
# T1 sequence (Q16678 whole entry): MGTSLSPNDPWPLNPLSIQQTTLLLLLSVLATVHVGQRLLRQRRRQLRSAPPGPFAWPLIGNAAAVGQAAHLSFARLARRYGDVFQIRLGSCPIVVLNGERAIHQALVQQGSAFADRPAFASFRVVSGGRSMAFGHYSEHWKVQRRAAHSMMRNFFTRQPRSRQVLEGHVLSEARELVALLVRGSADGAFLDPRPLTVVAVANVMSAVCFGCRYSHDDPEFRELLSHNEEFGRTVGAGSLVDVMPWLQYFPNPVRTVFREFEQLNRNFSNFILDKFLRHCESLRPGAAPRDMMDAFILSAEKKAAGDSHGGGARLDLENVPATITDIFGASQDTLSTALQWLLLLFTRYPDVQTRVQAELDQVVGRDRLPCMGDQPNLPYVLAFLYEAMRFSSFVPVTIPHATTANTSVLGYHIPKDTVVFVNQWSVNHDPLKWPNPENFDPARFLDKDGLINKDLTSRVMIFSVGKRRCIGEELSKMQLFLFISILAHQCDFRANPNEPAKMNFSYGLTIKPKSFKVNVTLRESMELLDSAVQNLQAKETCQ
# Experiment: Inhibition of recombinant human CYP1B1 expressed in HEK293 cells using 7-ethoxyresorufin as substrate pretreated for 30 mins followed by substrate addition measured for 60 mins by fluorescence assay
# Type: cell-based
row,IC50,SMILES
1,0.031 µM,COc1cc(/C=C/C(=O)c2ccncc2)cc(OC)c1
2,0.06 µM,COc1cccc(/C=C/C(=O)c2ccncc2)c1
3,0.23 µM,COc1ccc(/C=C/C(=O)c2ccncc2)cc1OC

# Molecular target: T2, Cytochrome P450 1A1 (Homo sapiens, UniProt P04798)
# T2 sequence (P04798 whole entry): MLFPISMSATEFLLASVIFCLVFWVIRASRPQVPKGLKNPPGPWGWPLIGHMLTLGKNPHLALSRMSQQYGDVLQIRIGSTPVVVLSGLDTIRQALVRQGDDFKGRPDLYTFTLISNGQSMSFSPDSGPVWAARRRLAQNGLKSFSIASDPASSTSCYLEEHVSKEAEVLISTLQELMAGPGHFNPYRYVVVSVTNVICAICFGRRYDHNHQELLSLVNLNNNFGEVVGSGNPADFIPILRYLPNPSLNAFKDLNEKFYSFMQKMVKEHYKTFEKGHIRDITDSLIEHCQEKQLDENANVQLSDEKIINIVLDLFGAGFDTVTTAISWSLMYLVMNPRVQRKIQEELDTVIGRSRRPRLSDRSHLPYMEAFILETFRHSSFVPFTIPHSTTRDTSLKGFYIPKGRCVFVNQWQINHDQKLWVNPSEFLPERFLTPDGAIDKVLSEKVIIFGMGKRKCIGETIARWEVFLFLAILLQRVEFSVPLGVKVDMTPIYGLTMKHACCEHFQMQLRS
# Experiment: Inhibition of recombinant human CYP1A1 expressed in HEK293 cells using 7-ethoxyresorufin as substrate pretreated for 30 mins followed by substrate addition measured for 60 mins by fluorescence assay
# Type: cell-based
row,IC50,SMILES
1,0.22 µM,COc1cc(/C=C/C(=O)c2ccncc2)cc(OC)c1
2,0.62 µM,COc1cccc(/C=C/C(=O)c2ccncc2)c1
3,0.42 µM,COc1ccc(/C=C/C(=O)c2ccncc2)cc1OC

# Molecular target: T3, Cytochrome P450 2C9 (Homo sapiens, UniProt P11712)
# T3 sequence (P11712 whole entry): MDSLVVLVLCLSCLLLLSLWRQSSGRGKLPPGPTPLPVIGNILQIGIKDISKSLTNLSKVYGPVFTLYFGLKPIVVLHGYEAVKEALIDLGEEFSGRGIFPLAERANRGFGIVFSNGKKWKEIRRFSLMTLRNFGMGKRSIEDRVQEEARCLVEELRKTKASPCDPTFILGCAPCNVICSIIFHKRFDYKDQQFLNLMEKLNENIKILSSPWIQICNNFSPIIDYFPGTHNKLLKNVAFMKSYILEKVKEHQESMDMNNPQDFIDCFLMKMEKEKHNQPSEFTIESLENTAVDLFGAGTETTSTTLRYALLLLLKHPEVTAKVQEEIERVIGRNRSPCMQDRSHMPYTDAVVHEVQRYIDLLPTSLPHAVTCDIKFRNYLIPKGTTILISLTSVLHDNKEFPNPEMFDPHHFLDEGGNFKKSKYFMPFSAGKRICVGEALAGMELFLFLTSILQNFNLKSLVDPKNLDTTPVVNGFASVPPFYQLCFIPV
# Experiment: Inhibition of human CYP2C9 expressed in yeast microsomal membranes using 3-cyano-7-ethoxycoumarin as substrate measured after 10 mins by fluorescence assay
# Type: ADME, cell membranes, Microsomal Membrane
row,IC50,SMILES
1,> 20 µM,COc1cc(/C=C/C(=O)c2ccncc2)cc(OC)c1
2,> 20 µM,COc1cccc(/C=C/C(=O)c2ccncc2)c1
3,> 20 µM,COc1ccc(/C=C/C(=O)c2ccncc2)cc1OC

# Molecular target: T4, Cytochrome P450 1A2 (Homo sapiens, UniProt P05177)
# T4 sequence (P05177 whole entry): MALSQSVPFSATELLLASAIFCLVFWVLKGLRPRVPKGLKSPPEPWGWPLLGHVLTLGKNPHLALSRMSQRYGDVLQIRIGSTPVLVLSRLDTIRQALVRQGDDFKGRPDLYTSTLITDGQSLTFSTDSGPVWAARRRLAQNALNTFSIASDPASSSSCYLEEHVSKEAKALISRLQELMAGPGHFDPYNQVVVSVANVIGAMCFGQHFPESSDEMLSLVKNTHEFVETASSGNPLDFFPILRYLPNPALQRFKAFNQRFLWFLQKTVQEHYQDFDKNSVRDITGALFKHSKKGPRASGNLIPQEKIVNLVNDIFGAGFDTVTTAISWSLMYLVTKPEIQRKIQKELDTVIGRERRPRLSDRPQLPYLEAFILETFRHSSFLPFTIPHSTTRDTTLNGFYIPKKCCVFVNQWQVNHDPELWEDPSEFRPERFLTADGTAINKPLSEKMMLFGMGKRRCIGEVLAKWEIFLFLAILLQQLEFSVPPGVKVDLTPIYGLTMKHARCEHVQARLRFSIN
# Experiment: Inhibition of recombinant human CYP1A2 expressed in HEK293 cells using 3-cyano-7-ethoxycoumarin as substrate pretreated for 30 mins followed by substrate addition measured for 60 mins by fluorescence assay
# Type: ADME
row,IC50,SMILES
1,0.028 µM,COc1cc(/C=C/C(=O)c2ccncc2)cc(OC)c1
2,0.02 µM,COc1cccc(/C=C/C(=O)c2ccncc2)c1
3,0.12 µM,COc1ccc(/C=C/C(=O)c2ccncc2)cc1OC

# Molecular target: T5, Cytochrome P450 2C19 (Homo sapiens, UniProt P33261)
# T5 sequence (P33261 whole entry): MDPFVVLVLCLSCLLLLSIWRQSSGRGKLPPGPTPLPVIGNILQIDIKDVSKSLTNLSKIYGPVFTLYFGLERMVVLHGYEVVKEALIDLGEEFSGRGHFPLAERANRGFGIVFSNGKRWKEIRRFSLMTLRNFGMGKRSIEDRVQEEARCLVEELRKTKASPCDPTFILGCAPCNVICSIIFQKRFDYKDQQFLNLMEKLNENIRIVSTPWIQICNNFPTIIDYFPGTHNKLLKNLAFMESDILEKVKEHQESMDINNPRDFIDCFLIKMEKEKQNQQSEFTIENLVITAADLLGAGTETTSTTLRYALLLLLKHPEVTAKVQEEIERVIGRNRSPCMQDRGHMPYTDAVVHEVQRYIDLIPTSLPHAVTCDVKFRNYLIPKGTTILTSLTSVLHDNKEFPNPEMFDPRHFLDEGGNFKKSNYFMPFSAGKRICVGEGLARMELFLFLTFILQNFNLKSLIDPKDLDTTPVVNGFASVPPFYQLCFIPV
# Experiment: Inhibition of recombinant human CYP2C19 expressed in HEK293 cells using 3-cyano-7-ethoxycoumarin as substrate pretreated for 30 mins followed by substrate addition measured for 60 mins by fluorescence assay
# Type: ADME
row,IC50,SMILES
1,> 10 µM,COc1cc(/C=C/C(=O)c2ccncc2)cc(OC)c1
2,> 10 µM,COc1cccc(/C=C/C(=O)c2ccncc2)c1
3,> 10 µM,COc1ccc(/C=C/C(=O)c2ccncc2)cc1OC

# Molecular target: T6, Cytochrome P450 3A4 (Homo sapiens, UniProt P08684)
# T6 sequence (P08684 whole entry): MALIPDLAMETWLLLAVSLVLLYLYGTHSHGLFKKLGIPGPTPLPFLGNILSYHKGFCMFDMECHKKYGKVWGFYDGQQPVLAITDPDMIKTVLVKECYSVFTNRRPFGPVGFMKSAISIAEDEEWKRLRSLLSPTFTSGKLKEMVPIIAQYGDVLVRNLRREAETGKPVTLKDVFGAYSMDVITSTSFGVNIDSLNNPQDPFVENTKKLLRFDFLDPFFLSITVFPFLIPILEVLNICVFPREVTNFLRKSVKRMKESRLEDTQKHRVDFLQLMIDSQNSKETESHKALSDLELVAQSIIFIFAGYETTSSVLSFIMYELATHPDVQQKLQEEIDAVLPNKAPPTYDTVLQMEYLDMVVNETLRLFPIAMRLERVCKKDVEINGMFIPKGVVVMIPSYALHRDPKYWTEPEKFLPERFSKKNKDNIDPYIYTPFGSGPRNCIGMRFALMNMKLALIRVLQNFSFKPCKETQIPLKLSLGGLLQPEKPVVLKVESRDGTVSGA
# Experiment: Inhibition of human CYP3A4 expressed in yeast microsomal membranes using dibenzylfluorescein as substrate measured after 10 mins by fluorescence assay
# Type: ADME, cell membranes, Microsomal Membrane
row,IC50,SMILES
1,> 20 µM,COc1cc(/C=C/C(=O)c2ccncc2)cc(OC)c1
2,> 20 µM,COc1cccc(/C=C/C(=O)c2ccncc2)c1
3,> 20 µM,COc1ccc(/C=C/C(=O)c2ccncc2)cc1OC

# Molecular target: T6, Cytochrome P450 3A4
# Experiment: Inhibition of recombinant human CYP3A4 expressed in HEK293 cells using dibenzylfluorescein as substrate pretreated for 30 mins followed by substrate addition measured for 60 mins by fluorescence assay
# Type: ADME
row,IC50,SMILES
1,> 10 µM,COc1cc(/C=C/C(=O)c2ccncc2)cc(OC)c1
2,> 10 µM,COc1cccc(/C=C/C(=O)c2ccncc2)c1
3,> 10 µM,COc1ccc(/C=C/C(=O)c2ccncc2)cc1OC

# Molecular target: T1, Cytochrome P450 1B1
# Experiment: Inhibition of human CYP1B1 expressed in yeast microsomal membranes using 7-ethoxyresorufin as substrate measured after 10 mins by fluorescence assay
# Type: cell membranes
row,IC50,SMILES
1,0.041 µM,COc1cc(/C=C/C(=O)c2ccncc2)cc(OC)c1
2,0.054 µM,COc1cccc(/C=C/C(=O)c2ccncc2)c1
3,0.17 µM,COc1ccc(/C=C/C(=O)c2ccncc2)cc1OC

# Molecular target: T2, Cytochrome P450 1A1
# Experiment: Inhibition of human CYP1A1 expressed in yeast microsomal membranes using 7-ethoxyresorufin as substrate measured after 10 mins by fluorescence assay
# Type: cell membranes
row,IC50,SMILES
1,0.18 µM,COc1cc(/C=C/C(=O)c2ccncc2)cc(OC)c1
2,0.59 µM,COc1cccc(/C=C/C(=O)c2ccncc2)c1
3,0.38 µM,COc1ccc(/C=C/C(=O)c2ccncc2)cc1OC

# Molecular target: T7, Cytochrome P450 2D6 (Homo sapiens, UniProt P10635)
# T7 sequence (P10635 whole entry): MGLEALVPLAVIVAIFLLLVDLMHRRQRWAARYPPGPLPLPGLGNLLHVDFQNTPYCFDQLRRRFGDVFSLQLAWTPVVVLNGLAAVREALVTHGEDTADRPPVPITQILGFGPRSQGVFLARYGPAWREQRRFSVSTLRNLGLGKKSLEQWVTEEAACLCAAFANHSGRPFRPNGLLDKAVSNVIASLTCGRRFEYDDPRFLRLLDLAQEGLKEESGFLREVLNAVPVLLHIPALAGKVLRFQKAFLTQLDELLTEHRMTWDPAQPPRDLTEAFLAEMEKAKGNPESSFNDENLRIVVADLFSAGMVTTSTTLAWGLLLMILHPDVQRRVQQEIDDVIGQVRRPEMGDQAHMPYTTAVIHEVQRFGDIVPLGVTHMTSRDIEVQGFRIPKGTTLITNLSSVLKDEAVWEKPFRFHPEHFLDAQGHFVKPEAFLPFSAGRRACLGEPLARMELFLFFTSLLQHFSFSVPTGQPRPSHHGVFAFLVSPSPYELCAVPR
# Experiment: Inhibition of recombinant human CYP2D6 expressed in HEK293 cells using 7-ethoxy-methyloxy-3-cyanocoumarin as substrate pretreated for 30 mins followed by substrate addition measured for 60 mins by fluorescence assay
# Type: ADME, cell-based
row,IC50,SMILES
1,> 10 µM,COc1cc(/C=C/C(=O)c2ccncc2)cc(OC)c1
2,> 10 µM,COc1cccc(/C=C/C(=O)c2ccncc2)c1
3,> 10 µM,COc1ccc(/C=C/C(=O)c2ccncc2)cc1OC

# Molecular target: T7, Cytochrome P450 2D6
# Experiment: Inhibition of human CYP2D6 expressed in yeast microsomal membranes using 7-ethoxy-methyloxy-3-cyanocoumarin as substrate measured after 10 mins by fluorescence assay
# Type: ADME, cell membranes, Microsomal Membrane
row,IC50,SMILES
1,16 µM,COc1cc(/C=C/C(=O)c2ccncc2)cc(OC)c1
2,12 µM,COc1cccc(/C=C/C(=O)c2ccncc2)c1
3,8 µM,COc1ccc(/C=C/C(=O)c2ccncc2)cc1OC

# Molecular target: T3, Cytochrome P450 2C9
# Experiment: Inhibition of recombinant human CYP2C9 expressed in HEK293 cells using 3-cyano-7-ethoxycoumarin as substrate pretreated for 30 mins followed by substrate addition measured for 60 mins by fluorescence assay
# Type: ADME
row,IC50,SMILES
1,> 10 µM,COc1cc(/C=C/C(=O)c2ccncc2)cc(OC)c1
2,> 10 µM,COc1cccc(/C=C/C(=O)c2ccncc2)c1
3,> 10 µM,COc1ccc(/C=C/C(=O)c2ccncc2)cc1OC

# Molecular target: T4, Cytochrome P450 1A2
# Experiment: Inhibition of human CYP1A2 expressed in yeast microsomal membranes using 3-cyano-7-ethoxycoumarin as substrate measured after 10 mins by fluorescence assay
# Type: ADME, cell membranes, Microsomal Membrane
row,IC50,SMILES
1,0.028 µM,COc1cc(/C=C/C(=O)c2ccncc2)cc(OC)c1
2,0.02 µM,COc1cccc(/C=C/C(=O)c2ccncc2)c1
3,0.12 µM,COc1ccc(/C=C/C(=O)c2ccncc2)cc1OC

# Molecular target: T5, Cytochrome P450 2C19
# Experiment: Inhibition of human CYP2C19 expressed in yeast microsomal membranes using 3-cyano-7-ethoxycoumarin as substrate measured after 10 mins by fluorescence assay
# Type: ADME, cell membranes, Microsomal Membrane
row,IC50,SMILES
1,> 20 µM,COc1cc(/C=C/C(=O)c2ccncc2)cc(OC)c1
2,> 20 µM,COc1cccc(/C=C/C(=O)c2ccncc2)c1
3,> 20 µM,COc1ccc(/C=C/C(=O)c2ccncc2)cc1OC
